According to publication PMC10202811 (Nature Medicine, 2023):
“And” between values parts separate entries of the source, which are not always exact repeats. Equal values may be shown once. “Also recorded” adds a separate entry of the source. Marks after values point to notes of the source that are not given here.

Assay: Toxicity assessment (CTCAE version 4): treatment-related AEs, DLTs, dose reductions, RP2D; phase 1 NANT2015-02
Conditions: for Toxicity Maximum Grade per patient: Sinus tachycardia / Toxicity Maximum Grade per patient: Neutrophil count decreased: CTCAE grade
Procedure: Five DLs (45, 60, 75, 95 and 115 mg/m^2/dose) were assessed in A1, using a 3 + 3 design. […] Myeloid growth factor was given 24 hours after the completion of topotecan/cyclophosphamide on B2, according to institutional standards. Instructions and hands-on training for a tablet dispersion formulation, validated by Pfizer, was provided to families of patients who could not swallow tablets.
Initially, this was the only DL planned, but, with a subsequent amendment, a second DL was added to cohort A2 (150 mg). […] Finally, because of the nature of the patients in cohort A2 (which had only two planned DLs), an expansion of up to six additional patients was planned for the highest DL tested with zero or one DLT in six DLT-evaluable patients. Accrual could continue in the expansion cohort as long as none, or at most one, of the patients experienced DLT in the DLT observation period; if two or more patients experienced DLT in the DLT observation period, this would lead to a discussion of the suitability of this dose. The probability of observing […] with DLT, out of six patients, is 0.11, 0.22, 0.47, 0.68 and 0.77 when the true probability of DLT is 0.10, 0.15, 0.25, 0.35 and 0.40, respectfully.
Patients who were not evaluable for DLT were replaced for dose-escalation purposes. […] The MTD was defined as the highest DL tested at which zero of six or one of six patients experience DLT. After determination of the MTD and review of all toxicities, and provided that other safety considerations were acceptable, the MTD was labeled the RP2D.
Toxicity was graded according to CTCAE version 4. DLT definitions included only toxicities deemed at least possibly related to therapy. For A1 and A2, hematologic DLT was defined as grade 4 thrombocytopenia or grade 4 neutropenia >7-day duration or a delay in the start of subsequent course by more than 14 days due to ongoing thrombocytopenia or neutropenia, in the absence of bone marrow disease progression seen on clinically indicated bone marrow biopsy (if performed). For cohort B2, hematological DLT is defined as a delay in the start of subsequent course by more than 14 days due to ongoing thrombocytopenia or neutropenia, in the absence of bone marrow disease progression seen on clinically indicated bone marrow biopsy after the first dose reduction of cyclophosphamide and topotecan. Non-hematologic DLT was defined as any non-hematologic toxicity that delayed the start of a subsequent cycle by more than 14 days or any grade ≥3 toxicity, with the exception of the following grade 3 toxicities: nausea, vomiting, anorexia or dehydration resolving to grade ≤2 within 72 hours; increase in hepatic transaminase or electrolyte abnormality resolving eligibility levels within 7 days; diarrhea persisting for less than 72 hours; fever; infection; febrile neutropenia; high cholesterol or triglycerides if responsive (to ≤grade 2) with statin treatment; weight gain; and hyperglycemia if responsive (to <grade 2) with dietary modification.

[1] = Cohort A1, neurotoxicity, one line per patient (PID)
[2] = Cohort A1, one line per patient (PID)

## C[C@H]1Oc2cc(cnc2N)-c2c(nn(C)c2C#N)CN(C)C(=O)c2ccc(F)cc21 [Lorlatinib, (10R)-7-amino-12-fluoro-2,10,16-trimethyl-15-oxo-10,15,16,17-tetrahydro-2H-8,4-(metheno)pyrazolo[4,3-h][2,5,11]-benzoxadiazacyclotetradecine-3-carbonitrile]
<18 years (cohorts A1 and B2), two of 33
  patients developing grade 2 CNS effects: 6%
<18 years, lorlatinib monotherapy
  patients requiring a dose reduction: 9%
A1 (< 18 yrs), DL 5 (115 mg/m^2)
  CNS DLT (CTCAE V4): Grade 2 hallucination/insomnia
A1, DL5 (115 mg/m^2), course 1
  DLT: YES
  Toxicity reason for Dose reduction: Grade 3 Diarrhea (lactose intolerance)
A1, DL5 (115 mg/m^2), course 3
  DLT: Delayed DLT
  Toxicity reason for Dose reduction: Grade 2 Hallucination/insomnia^1
A2 (≥ 18 yrs), 100 mg
  CNS DLT (CTCAE V4): Grade 2 memory impairment
A2 (≥ 18 yrs), 150 mg
  CNS DLT (CTCAE V4): Grade 2-4 hallucinations, delusions, suicidal ideations; also recorded: Grade 3 agitation^g; also recorded: Grade 4 Mania
A2, 100 mg, course 3
  DLT: Delayed DLT^2
  Toxicity reason for Dose reduction: Grade 3 Hyperglycemia
A2, 100 mg, course 7
  DLT: Delayed DLT
  Toxicity reason for Dose reduction: Grade 2 Memory impairment
A2, 150 mg, course 2
  DLT: YES
  Toxicity reason for Dose reduction: Grade 2-4 Delusions, psychosis, suicide attempt^3
A2, 150 mg, course 2 (second patient)
  DLT: YES
A2, 150 mg, course 3
  Toxicity reason for Dose reduction: Grade 2 Lower extremity edema^5
A2, 150 mg, course 4
  DLT: Delayed DLT
  Toxicity reason for Dose reduction: Grade 2 Peripheral neuropathy/edema
A2, 150 mg, course 5
  Toxicity reason for Dose reduction: Grade 2 Peripheral neuropathy^6
B2 (< 18yrs), DL 5 (115 mg/m^2)
  CNS DLT (CTCAE V4): Grade 2 anxiety, depression, somnolence, hypersomnia
B2, DL5 (115 mg/m^2), course 3
  DLT: Delayed DLT
  Toxicity reason for Dose reduction: Grade 2 anxiety, depression, somnolence, hypersomnia
Cohort A1, DL1 (45 mg/m^2)
  Patients with DLT in course 1: 0
  Patients with DLT in course 2: 0
  Patients with DLT in other courses: 0
Cohort A1, DL2 (60 mg/m^2)
  Patients with DLT in course 1: 0
  Patients with DLT in course 2: 0
  Patients with DLT in other courses: 0
Cohort A1, DL3 (75 mg/m^2)
  Patients with DLT in course 1: 0
  Patients with DLT in course 2: 0
  Patients with DLT in other courses: 0
Cohort A1, DL4 (95 mg/m^2)
  Patients with DLT in course 1: 0
  Patients with DLT in course 2: 0
  Patients with DLT in other courses: 0
Cohort A1, DL5 (115 mg/m^2)
  Patients with DLT in course 1: 1^b
  Patients with DLT in course 2: 0
  Patients with DLT in other courses: 1^b
Cohort A1, patient PID 9
  Toxicity Maximum Grade per patient: Sinus tachycardia: 2
Cohort A1, patient PID 17
  Toxicity Maximum Grade per patient: Sinus tachycardia: 1
Cohort A1, patient PID 18
  Toxicity Maximum Grade per patient: Sinus tachycardia: 1
Cohort A1, patient PID 21
  Toxicity Maximum Grade per patient: Neutrophil count decreased: 2
Cohort A1, patient PID 31
  Toxicity Maximum Grade per patient: Neutrophil count decreased: 3
Cohort A1, grade 1-4 in c1-c4
  Amnesia (CNS effect): 0 (0)
  Confusion (CNS effect): 0 (0)
  Delirium (CNS effect): 0 (0)
  Delusions (CNS effect): 0 (0)
  Dysarthria (CNS effect): 0 (0)
  Euphoria (CNS effect): 0 (0)
  Hypersomnia (CNS effect): 0 (0)
  Mania (CNS effect): 0 (0)
  Paresthesia (CNS effect): 0 (0)
  Restlessness (CNS effect): 0 (0)
  Somnolence (CNS effect): 0 (0)
  Stuttering (CNS effect): 0 (0)
  Suicidal ideation (CNS effect): 0 (0)
[1]
  Agitation: Toxicity Maximum Grade per patient: 1
  Anxiety: Toxicity Maximum Grade per patient: 1
  Cognitive disturbance: Toxicity Maximum Grade per patient: 1
  Concentration impairment: Toxicity Maximum Grade per patient: 1
  Depression: Toxicity Maximum Grade per patient: 1
  Hallucinations: Toxicity Maximum Grade per patient: 2
  Headache: Toxicity Maximum Grade per patient: 1
  Memory impairment: Toxicity Maximum Grade per patient: 1
[2]
  Alanine aminotransferase increased: Toxicity Maximum Grade per patient: 1 and 2
  Alkaline phosphatase increased: Toxicity Maximum Grade per patient: 1 and 2
  Anemia: Toxicity Maximum Grade per patient: 2 and 1 and 3
  Aspartate aminotransferase increased: Toxicity Maximum Grade per patient: 1 and 3 and 2
  Cholesterol high: Toxicity Maximum Grade per patient: 2 and 1 and 3
  Creatinine increased: Toxicity Maximum Grade per patient: 1
  Diarrhea: Toxicity Maximum Grade per patient: 1 and 3
  Edema limbs: Toxicity Maximum Grade per patient: 1
  Electrocardiogram QT corrected interval prolonged: Toxicity Maximum Grade per patient: 1
  Fatigue: Toxicity Maximum Grade per patient: 1
  Flatulence: Toxicity Maximum Grade per patient: 2 and 1
  Gastroesophageal reflux disease: Toxicity Maximum Grade per patient: 2
  Hyperglycemia: Toxicity Maximum Grade per patient: 1 and 3
  Hypertriglyceridemia: Toxicity Maximum Grade per patient: 1 and 2 and 3
  INCREASED APPETITE: Toxicity Maximum Grade per patient: 1
  Irritability: Toxicity Maximum Grade per patient: 1
  Lymphocyte count decreased: Toxicity Maximum Grade per patient: 1 and 3
